# Data published in patent US10329294B2, “Pyrazolopyrimidine inhibitors of IRAK4 activity” (MERCK SHARP & DOHME CORP., priority 2015, dated 2019).
# Counter-ions that a name gives are not always drawn.
# Biological target: IRAK4 (Homo sapiens (Human), UniProt Q9NWZ3)
# Assay: IRAK4 Kinase Assay
# Format: biochemical
# Settings: IMAP fluorescence polarization, 0.5 nM GST tagged IRAK4, 100 μM ATP, 30 minutes at 25° C.; read-out: IRAK4 IC50
# Chain of IRAK4 (Q9NWZ3 whole entry): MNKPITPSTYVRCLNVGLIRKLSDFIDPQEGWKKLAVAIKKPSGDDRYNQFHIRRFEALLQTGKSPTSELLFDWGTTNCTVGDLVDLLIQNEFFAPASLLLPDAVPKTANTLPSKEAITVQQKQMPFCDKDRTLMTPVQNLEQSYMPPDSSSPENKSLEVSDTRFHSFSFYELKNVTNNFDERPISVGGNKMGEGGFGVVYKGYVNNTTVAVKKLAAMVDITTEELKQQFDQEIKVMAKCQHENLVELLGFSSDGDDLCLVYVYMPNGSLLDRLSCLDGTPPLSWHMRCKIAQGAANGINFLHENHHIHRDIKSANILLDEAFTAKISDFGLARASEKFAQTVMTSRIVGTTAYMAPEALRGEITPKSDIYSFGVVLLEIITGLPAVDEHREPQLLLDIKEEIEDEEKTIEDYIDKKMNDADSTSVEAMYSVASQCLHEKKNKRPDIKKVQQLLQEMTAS
row,SMILES,IC50 [nM]
1,"Cn1cc(NC(=O)c2cnn3ccc(N4C5CCC6NC5CCC64)nc23)c(C(F)(F)F)n1 [Example 102, 5-(2,7-diazatricyclo[4.4.0.0~3,8~]dec-2-yl)-N-[1-methyl-3-(trifluoromethyl)-1H-pyrazol-4-yl]pyrazolo[1,5-a]pyrimidine-3-carboxamide trifluoroacetate]",163
2,"Cn1cc(NC(=O)c2cnn3ccc(N4CCC[C@H](N)C4)nc23)c(C(F)(F)F)n1 [Example 44, 5-[(3S)-3-aminopiperidin-1-yl]-N-[1-methyl-3-(trifluoromethyl)-1H-pyrazol-4-yl]pyrazolo[1,5-a]pyrimidine-3-carboxamide]",5
3,"CC(C)n1cc(NC(=O)c2cnn3ccc(N4CCNCC5(CC5)C4)nc23)c(C(F)(F)F)n1 [Example 51, 5-(5,8-diazaspiro[2.6]non-5-yl)-N-[1-(1-methylethyl)-3-(trifluoromethyl)-1H-pyrazol-4-yl]pyrazolo[1,5-a]pyrimidine-3-carboxamide]",32
4,"Cn1cc(NC(=O)c2cnn3ccc(N4CC5CCC(C4)N5)nc23)c(C(F)(F)F)n1 [Example 81, 5-(3,8-diazabicyclo[3.2.1]oct-3-yl)-N-[1-methyl-3-(trifluoromethyl)-1H-pyrazol-4-yl]pyrazolo[1,5-a]pyrimidine-3-carboxamide trifluoroacetate]",9
5,"Cn1cc(NC(=O)c2cnn3ccc(N4CCC[C@@H](N)C4)nc23)c(C(F)(F)F)n1 [Example 32, 5-[(3R)-3-aminopiperidin-1-yl]-N-[1-methyl-3-(trifluoromethyl)-1H-pyrazol-4-yl]pyrazolo[1,5-a]pyrimidine-3-carboxamide]",3
6,"CN1CCN(c2ccn3ncc(C(=O)Nc4cn(C)nc4C(F)(F)F)c3n2)CC1 [Example 34, 5-(4-methylpiperazin-1-yl)-N-[1-methyl-3-(trifluoromethyl)-1H-pyrazol-4-yl]pyrazolo[1,5-a]pyrimidine-3-carboxamide]",269
7,"Cn1cc(NC(=O)c2cnn3ccc(N4CC[C@H]5CC[C@@H](C4)N5)nc23)c(C(F)(F)F)n1 (single isomer, unassigned) [Example 89, 5-[(1R,6S)- or (1S,6R)-3,9-diazabicyclo[4.2.1]non-3-yl]-N-[1-methyl-3-(trifluoromethyl)-1H-pyrazol-4-yl]pyrazolo[1,5-a]pyrimidine-3-carboxamide trifluoroacetate]",270
8,"Cn1cc(NC(=O)c2cnn3ccc(N4CCNC(C5CC5)C4)nc23)c(C(F)(F)F)n1 (centres unmarked) [Example 28, 5-(3-cyclopropylpiperazin-1-yl)-N-[1-methyl-3-(trifluoromethyl)-1H-pyrazol-4-yl]pyrazolo[1,5-a]pyrimidine-3-carboxamide trifluoroacetate]",72
9,"Cn1cc(NC(=O)c2cnn3ccc(N4C[C@H]5CNC[C@@H]4C5)nc23)c(C(F)F)n1 (single isomer, unassigned) [Example 240, 5-[(1S,5R)- or (1R,5S)-3,6-diazabicyclo[3.2.1]oct-6-yl]-N-[3-(difluoromethyl)-1-methyl-1H-pyrazol-4-yl]pyrazolo[1,5-a]pyrimidine-3-carboxamide]",43
10,"Cn1cc(NC(=O)c2cnn3ccc(NC4CCCCNC4)nc23)c(C(F)F)n1 (centres unmarked) [Example 99, 5-(azepan-3-ylamino)-N-[3-(difluoromethyl)-1-methyl-1H-pyrazol-4-yl]pyrazolo[1,5-a]pyrimidine-3-carboxamide]",3
11,"O=C(Nc1cn(CC(F)F)nc1C(F)(F)F)c1cnn2ccc(N3CCNCC4(CC4)C3)nc12 [Example 64, 5-(5,8-diazaspiro[2.6]non-5-yl)-N-[1-(2,2-difluoroethyl)-3-(trifluoromethyl)-1H-pyrazol-4-yl]pyrazolo[1,5-a]pyrimidine-3-carboxamide trifluoroacetate]",18
12,"Cn1cc(NC(=O)c2cnn3ccc(N4CCNCC4CC(F)(F)F)nc23)c(C(F)(F)F)n1 (centres unmarked) [Example 41, N-[1-methyl-3-(trifluoromethyl)-1H-pyrazol-4-yl]-5-[2-(2,2,2-trifluoroethyl)piperazin-1-yl]pyrazolo[1,5-a]pyrimidine-3-carboxamide trifluoroacetate]",106
13,"N#Cc1sccc1NC(=O)c1cnn2ccc(N[C@@H]3CCCC(F)(F)[C@@H]3N)nc12 [Example 191, 5-{[(1R,2R)-2-amino-3,3-difluorocyclohexyl]amino}-N-(2-cyanothiophen-3-yl)pyrazolo[1,5-a]pyrimidine-3-carboxamide]",156
14,"O=C(Nc1cn(CC(F)(F)F)nc1C(F)(F)F)c1cnn2ccc(N3CCNCC4(CC4)C3)nc12 [Example 70, 5-(5,8-diazaspiro[2.6]non-5-yl)-N-[1-(2,2,2-trifluoroethyl)-3-(trifluoromethyl)-1H-pyrazol-4-yl]pyrazolo[1,5-a]pyrimidine-3-carboxamide trifluoroacetate]",51
15,"Cn1cc(NC(=O)c2cnn3ccc(N4CC5CNCC4C5)nc23)c(C(F)F)n1 (centres unmarked) [Example 238, 5-[3,6-diazabicyclo[3.2.1]oct-6-yl]-N-[3-(difluoromethyl)-1-methyl-1H-pyrazol-4-yl]pyrazolo[1,5-a]pyrimidine-3-carboxamide]",4
16,"Cn1cc(NC(=O)c2cnn3ccc(N[C@H]4CCCCNC4)nc23)c(C(F)F)n1 (single isomer, unassigned) [Example 163, 5-[(3S)- or (3R)-azepan-3-ylamino]-N-[3-(difluoromethyl)-1-methyl-1H-pyrazol-4-yl]pyrazolo[1,5-a]pyrimidine-3-carboxamide trifluoroacetate]",7
17,"Cn1cc(NC(=O)c2cnn3ccc(N4CCNCC5(CC5)C4)nc23)c(C(F)F)n1 [Example 86, 5-(5,8-diazaspiro[2.6]non-5-yl)-N-[3-(difluoromethyl)-1-methyl-1H-pyrazol-4-yl]pyrazolo[1,5-a]pyrimidine-3-carboxamide trifluoroacetate]",2
18,"Cn1cc(NC(=O)c2cnn3ccc(N[C@@H]4CNCC(F)(F)C4)nc23)c(C(F)F)n1 (single isomer, unassigned) [Example 228, N-[3-(difluoromethyl)-1-methyl-1H-pyrazol-4-yl]-5-{[(3S)- or (3R)-5,5-difluoropiperidin-3-yl]amino}pyrazolo[1,5-a]pyrimidine-3-carboxamide]",59

# The remaining lines, values ahead:
row,IC50 [nM],SMILES
1,245,"O=C(Nc1cscc1Br)c1cnn2ccc(N3CC4CCC3CN4)nc12 (centres unmarked) [Example 124, N-(4-bromothiophen-3-yl)-5-(2,5-diazabicyclo[2.2.2]oct-2-yl)pyrazolo[1,5-a]pyrimidine-3-carboxamide trifluoroacetate]"
2,788,"N[C@@H]1[C@H](Nc2ccn3ncc(C(=O)Nc4ccccc4Cl)c3n2)CCCC1(F)F [Example 106, 5-{[(1R,2R)-2-amino-3,3-difluorocyclohexyl]amino}-N-(2-chlorophenyl)pyrazolo[1,5-a]pyrimidine-3-carboxamide trifluoroacetate]"
3,0.5,"Cn1cc(NC(=O)c2cnn3ccc(N[C@H]4CNCCC4(F)F)nc23)c(C(F)(F)F)n1 (single isomer, unassigned) [Example 243, 5-[(R or S)-(4,4-difluoropiperidin-3-yl)amino]-N-[1-methyl-3-(trifluoromethyl)-1H-pyrazol-4-yl]pyrazolo[1,5-a]pyrimidine-3-carboxamide trifluoroacetate]"
4,464,"N#Cc1sccc1NC(=O)c1cnn2ccc(N3CCCNCC3)nc12 [Example 111, N-(2-cyanothiophen-3-yl)-5-(1,4-diazepan-1-yl)pyrazolo[1,5-a]pyrimidine-3-carboxamide trifluoroacetate]"
5,2,"Cn1cc(NC(=O)c2cnn3ccc(N4C[C@H]5CC[C@@H]4CN5)nc23)c(C(F)F)n1 (single isomer, unassigned) [Example 161, 5-[(1S,4S)- or (1R,4R)-2,5-diazabicyclo[2.2.2]oct-2-yl]-N-[3-(difluoromethyl)-1-methyl-1H-pyrazol-4-yl]pyrazolo[1,5-a]pyrimidine-3-carboxamide trifluoroacetate]"
6,0.5,"Cn1cc(NC(=O)c2cnn3ccc(N[C@@H]4CCCC[C@@H]4N)nc23)c(Cl)n1 [Example 149, 5-{[(1R,2S)-2-aminocyclohexyl]amino}-N-(3-chloro-1-methyl-1H-pyrazol-4-yl)pyrazolo[1,5-a]pyrimidine-3-carboxamide trifluoroacetate]"
7,86,"O=C(Nc1cscc1C(F)F)c1cnn2ccc(N3C[C@@H]4CC[C@H]3CN4)nc12 (single isomer, unassigned) [Example 154, 5-[(1S,4S)- or (1R,4R)-2,5-diazabicyclo[2.2.2]oct-2-yl]-N-[4-(difluoromethyl)thiophen-3-yl]pyrazolo[1,5-a]pyrimidine-3-carboxamide trifluoroacetate]"
8,54,"N[C@H]1CCCC[C@H]1Nc1ccn2ncc(C(=O)Nc3ccsc3)c2n1 [Example 181, 5-{[(1R,2S)-2-aminocyclohexyl]amino}-N-thiophen-3-ylpyrazolo[1,5-a]pyrimidine-3-carboxamide trifluoroacetate]"
9,23,"Cn1cc(NC(=O)c2cnn3ccc(N4CCC(F)(F)[C@H](N)C4)nc23)c(C(F)(F)F)n1 (single isomer, unassigned) [Example 192, 5-[(4R)- or (4S)-(3-amino-4,4-difluoropiperidin-1-yl)-N-[1-methyl-3-(trifluoroemthyl)-1H-pyrazol-4-yl]pyrazolo[1,5-a]pyrimidine-3-carboxamide trifluoroacetate]"
10,8,"N[C@H]1CCCC[C@H]1Nc1ccn2ncc(C(=O)Nc3ccccc3C(F)F)c2n1 [Example 131, 5-{[(1R,2S)-2-aminocyclohexyl]amino}-N-[2-(difluoromethyl)phenyl] pyrazolo[1,5-a]pyrimidine-3-carboxamide trifluoroacetate]"
11,2650,"O=C(Nc1ccsc1Br)c1cnn2ccc(N[C@@H]3CCCC[C@@H]3O)nc12 [Example 196, N-(2-bromothiophen-3-yl)-5-{[(1R,2S)-2-hydroxycyclohexyl]amino} pyrazolo[1,5-a]pyrimidine-3-carboxamide trifluoroacetate]"
